Assay results: paper PMC12081877 (Nature Communications, 2025)

How the values were obtained:
ISM3312 P18 virus = assay type: cell-based, SARS-CoV-2
a panel of M^pro mutants = assay type: biochemical, SARS-CoV-2

Structure (SMILES): CC(C)(C)[C@H](NC(=O)C(F)(F)F)C(=O)N1C[C@H]2[C@@H]([C@H]1C(=O)N[C@H](C#N)C[C@@H]1CCNC1=O)C2(C)C [Nirmatrelvir]
- resistance level against the ISM3312 P18 virus (ISM3312 P18 virus): no resistance (key: white, no resistance ( < threefold); light blue, low-level resistance (3- to 10-fold); Medium blue, moderate-level resistance (10- to 50-fold); dark blue, high-level resistance ( > 50-fold))

Structure (SMILES): Cn1cnc(Cn2c(=O)[nH]/c(=N\c3cc4cn(C)nc4cc3Cl)n(Cc3cc(F)c(F)cc3F)c2=O)n1 [Ensitrelvir]
- resistance level (a panel of M^pro mutants): moderate- to high-levels resistance
